Source: US6423547B1, “Non-covalent bioconjugates useful for diagnosis and therapy” (Mallinckrodt Inc., priority 1998, dated 2002)
Like-named read-outs stand apart in the source and are kept apart here.

Experiments:
[1] = cited from earlier work
[2] = in vivo; cited from earlier work
[3] = 822 nanometers, ambient temperature, aqueous solution
Procedure: An aqueous solution of indocyanine green (ICG) and the carriers, inulin, poly-d,l-aspartic acid, polyguanylic acid, MBSA, and γ-cyclodextrin were prepared and the fluorescence intensity was monitored at ambient temperature at various time intervals.

[4] = Blood clearance in rats monitored by fluorescence from ear capillaries; details: rat, injected through lateral tail vein; excitation 780 nm, emission 830 nm
Procedure: A 500 μL portion of indocyanine green solution (0.8 mg/mL) was injected through the lateral tail vein of Sprague-Dawley or Fischer rats. Blood clearance of the dye bioconjugate was monitored by fluorescence signal emanating from the capillaries of the ear surface using a laser fluorescence apparatus (excitation, 780 nm; emission 830 nm).

[5] = Stability of carboxyphloroglucinol-squaraine dye and bioconjugates in aqueous solution, fluorescence intensity at 613 nm; assay type: physicochemical; details: 613 nanometers (λex=515), ambient temperature
[6] = Stability of cyanine blue dye and conjugates in aqueous solution, fluorescence intensity at 670 nm; assay type: physicochemical; details: 670 nanometers, ambient temperature
[7] = Stability of benzothiazolim-squaraine dye and bioconjugates in aqueous solution, fluorescence intensity at 665 nm; assay type: physicochemical; details: 665 nanometers, ambient temperature

For `CC1(C)C(/C=C/C=C/C=C/C=C2/N(CCCCS(=O)(=O)O)c3ccc4ccccc4c3C2(C)C)=[N+](CCCCS(=O)(=O)O)c2ccc3ccccc3c21.[Na+].[Na+]` [indocyanine green, Indocyanine Green Dye], the “degradation in aqueous media” value [1] is given as “undergoes degradation in aqueous media with loss of fluorescence”, the plasma half-life [2] is given as “very short” and the “uptake by the liver” value [2] is given as “rapidly taken up by the liver”. For the same compound, the “Percent Decrease in Fluorescence” value ([3]; 2 Hours) was 0%, the “Percent Decrease in Fluorescence” value ([3]; 4 Hours) was 19% and the “Percent Decrease in Fluorescence” value ([3]; 24 Hours) was 48%. For the same compound, the “time constant (τ) for blood clearance” value [4] was 138 s.
With `O=C(O)C1=C(O)/C(=C2/C(=O)C(c3c(O)cc(O)c(C(=O)O)c3O)=C2O)C(O)=CC1=O` [Carboxyphloroglucinol Squaraine Dye] the “Percent Decrease in Fluorescence” value ([5]; 2 Hours) was 13%, the “Percent Decrease in Fluorescence” value ([5]; 4 Hours) was 13% and the “Percent Decrease in Fluorescence” value ([5]; 24 Hours) was 50%.
In the case of `O=C(O)CN1/C(=C/C=C/C=C/c2sc3ccccc3[n+]2CC(=O)O)Sc2ccccc21` [Cyanine Blue Dye/Water, Cyanine Blue Dye], the “Percent Decrease in Fluorescence” value ([6]; 2 Hours) is reported as 20%, the “Percent Decrease in Fluorescence” value ([6]; 4 Hours) is reported as 42% and the “Percent Decrease in Fluorescence” value ([6]; 24 Hours) is reported as 99%.
For `O=C(O)CN1/C(=C/C2=C(O)C(=C/c3sc4ccccc4[n+]3CC(=O)O)/C2=O)Sc2ccccc21` [Benzothiazolim Dye/Water, Benzothiazolium Squaraine Dye], the “Percent Decrease in Fluorescence” value ([7]; 2 Hours) was 92%, the “Percent Decrease in Fluorescence” value ([7]; 4 Hours) was 64% and the “Percent Decrease in Fluorescence” value ([7]; 24 Hours) was 46%.
